The record followed here is patent publication US20050255084A1, “Use of a half-transporter protein of the abcg-family for selecting cells and in gene therapy” (SOLVO BIOTECHNOLOGY, priority 2001, published 2005).

Series [1] in a line: Cytotoxicity assay (cell survival after 4 days), vector control. It is filed as cell-based. The settings on record: human, mock-transduced (vector control) PLB985 cells. How it is done:
(§1) Panel C: Cytotoxicity assay (cell survival after 4 days) of PLB985 cells expressing the ABCG2 variants. • ∘: Control, mock-transduced PLB985s; • Δ: PLB985s expressing ABCG2-R, selected by 10 nM MX; • ◯: PLB985s expressing ABCG2-G, selected by 100 nM MX.
(§2) This assay was performed in 24-well plates, cells seeded at a density of 200,000 cells/well. Cytotoxic drugs were added at the concentrations indicated and the cells were cultured for 4 days at 37° C. Total and live cell numbers were determined by flow cytometry after the addition of 2 μg/ml propidium-iodide, to identify dead cells.

The subject of series [2] is ABCG2-R (wild-type ABCG2). Kind of series: Cytotoxicity assay (cell survival after 4 days), wild-type ABCG2. It counts as cell-based. The settings on record: human, PLB985 cells expressing ABCG2-R (wild-type ABCG2), selected by 10 nM MX. How it is done:
as §1, §2

The subject of the next series is ABCG2-G (R482G ABCG2). Kind of series: Cytotoxicity assay (cell survival after 4 days), R482G ABCG2. It is filed as cell-based. The settings on record: human, PLB985 cells expressing ABCG2-G (R482G ABCG2), selected by 100 nM MX. Here is the method: as §1, §2
Series [3] has as its system transduced PLB985 X-CGD cells. The series can be described thus: Flow cytometry of gp91phox expression after drug selection. It counts as cell-based, human. The settings on record: 10 nM MX selection for four days; 40-48% before selection. How it is done: (§3) Transduced PLB985 cells were selected by stepwise increases in mitoxantrone or doxorubicin (DOX; other name: adriamycin) concentrations. Selection was started 5 days (in some cases: 7 days) after transduction; each drug concentration was applied for four days (in early experiments: 8 days). CD34+ cells were selected similarly but were first selected on day two after transduction.
(§4) Gp91^phox expression was measured by flow cytometry (Becton Dickinson FACS Calibur) by using the 7D5 antibody (provided by M. Nakamura (Nakamura et al., 1987) and phycoerythrin-labeled anti-mouse secondary antibody (GAM-PE, 250 times dilution, Sigma).

In series [4] the test system is human cord blood CD34+ cells. Kind of series: Suspension culture granulocyte differentiation with MX selection. It counts as cell-based. The settings on record: 5 nM MX selection.
Text: as §3
Cell differentiation was induced by 0.5% dimethyl-formamide (DMF) in order to obtain granulocytes. In order to follow granulocyte differentiation, cells were labelled with monoclonal anti-CD11b/RPE antibody (Dako, Denmark), and staining was determined by flow cytometry. For the induction of differentiation in the case of normal CD34+ cells, both liquid suspension cultures and clonogenic progenitor assays were used. For suspension culture, fresh media, containing cytokines +G-CSF (50 ng/ml) were added to the cells 24 hours after transduction, and then the cells were incubated for 12-14 days at 37° C.

For series [5], the system named is human cord blood CD34+ cells. The series can be described thus: Colony-forming cell assay. It is filed as cell-based. The settings on record: 5 nM MX. Here is the method: In the colony-forming cell assay the cells were plated at a concentration of 250 cells/ml and 1250 cells/ml in Iscove's medium, containing 0.9% methylcellulose, 30% FCS, 1% bovine serum albumin, 1.4×10^−5M dithiothreitol, 5 ng/ml human recombinant IL-3, 25 ng/ml SCF, 10 ng/ml GM-CSF, 2 ng/ml G-CSF and 2U/ml erythropoietin, in the presence or absence of 5 nM mitoxantrone. After 14 days of incubation at 37° C., the colony forming cells were counted.

Series [6] has as its system mouse X-CGD KO -/- bone marrow cells. The series can be described thus: Cytotoxicity assay on mouse bone marrow cells. It counts as cell-based. Here is the method:
FIG. 8. Panel A Cytotoxicity assay (cell survival after four days) on transduced mouse X-CGD KO −/− bone marrow cells • ♦Control, non transduced cells • ▪Cells tranduced by SPsAGS vector carrying cDNA of ABCG2-G, unselected, • ▴Cells tranduced by SPsATS vector carrying cDNA of ABCG2-T, unselected.
as §2
(§5) Drug selection of the transduced cells, cytotoxic assay, immunodetection of gp91^phox, nitroblue tetrazolium test (NBT) were performed similar as in human CD34+ cells except using murine cytokines. In the colony assay 10 000 cells were plated in semisolid medium containing 0, 5 and 10 nM MX.

For series [7] the test system is unchanged. Kind of series: Flow cytometry of gp91phox expression in selected mouse bone marrow cells. It is filed as cell-based. The settings on record: 5 days selection on 5 nM or 10 nM MX; SPsAGS transduced BM cells. Here is the method:
as §4, §5

The test system is the same in series [8]. Kind of series: Colony assay from mouse bone marrow cells. It is filed as cell-based. The note with it: 5 nM or 10 nM MX in semisolid medium. How it is done: In the colony assay 10 000 cells were plated in semisolid medium containing 0, 5 and 10 nM MX.
Series [9] concerns mock-transduced PLB985 X-CGD cells. The series can be described thus: Mitoxantrone uptake assay, mock-transduced cells. It counts as cell-based, human. The settings on record: 10 μM FTC, 5 μM MX.
Procedure: Cells were suspended in phenol red-free Hank's balanced salt solution, with additional pH stabilization by 20 mM phosphate buffer. Aliquots of the suspension, containing 3×10^5 cells, were incubated with or without the addition of 5 μM MX, and also with 5 μM MX+10 μM FTC, a specific inhibitor of ABCG2 (Rabindran et al., 2000; van Loevezijn et al., 2001). After one hour incubation at 37° C., the cells were washed with ice-cold medium, resuspended in ice-cold medium containing 21 g/ml propidium-iodide, and stored on ice until analysis by flow cytometry. Cellular MX values were determined at 635 nm excitation/661 nm emission wavelengths.
The target in series [10] is T1, ABCG2-G (Homo sapiens, UniProt Q9UNQ0, R482G). The settings on record: 10 μM FTC, 5 μM MX; transduced cells pre-selected with 10 nM MX. Here is the method:
(§6) Functional detection of ABCG2 expression was evaluated with a modified MX uptake assay of Robey et al. (Robey et al., 2001). Cells were suspended in phenol red-free Hank's balanced salt solution, with additional pH stabilization by 20 mM phosphate buffer. Aliquots of the suspension, containing 3×10^5 cells, were incubated with or without the addition of 5 μM MX, and also with 5 μM MX+10 μM FTC, a specific inhibitor of ABCG2 (Rabindran et al., 2000; van Loevezijn et al., 2001). After one hour incubation at 37° C., the cells were washed with ice-cold medium, resuspended in ice-cold medium containing 21 µg/ml propidium-iodide, and stored on ice until analysis by flow cytometry. Cellular MX values were determined at 635 nm excitation/661 nm emission wavelengths.

In series [11] the target is T1, ABCG2-G. The settings on record: 10 μM FTC, 5 μM MX; ABCG2-G cells selected by 100 nM MX. Here is the method:
(§7) Panel B: Flow cytometry detection of mitoxantrone uptake (dotted lines: autofluorescence, solid thick lines: MX fluorescence, solid thin lines: MX fluorescence in the presence of the ABCG2-inhibitor, FTC). Part 1: Mock-transduced PLB985s; Part 2: PLB985s expressing ABCG2-R, selected by 10 nM MX; Part 3: PLB985s expressing ABCG2-G, selected by 100 nM MX.
as §6

For the next series, the target named is ABCG2-R (Homo sapiens, UniProt Q9UNQ0). The note with it: 10 μM FTC, 5 μM MX; ABCG2-R cells selected by 10 nM MX. Here is the method:
as §7, §6

Values after ≈ are worked out from the molar mass of the structure shown. Some results are limits rather than exact numbers.

T1 sequence (Q9UNQ0 whole entry R482G): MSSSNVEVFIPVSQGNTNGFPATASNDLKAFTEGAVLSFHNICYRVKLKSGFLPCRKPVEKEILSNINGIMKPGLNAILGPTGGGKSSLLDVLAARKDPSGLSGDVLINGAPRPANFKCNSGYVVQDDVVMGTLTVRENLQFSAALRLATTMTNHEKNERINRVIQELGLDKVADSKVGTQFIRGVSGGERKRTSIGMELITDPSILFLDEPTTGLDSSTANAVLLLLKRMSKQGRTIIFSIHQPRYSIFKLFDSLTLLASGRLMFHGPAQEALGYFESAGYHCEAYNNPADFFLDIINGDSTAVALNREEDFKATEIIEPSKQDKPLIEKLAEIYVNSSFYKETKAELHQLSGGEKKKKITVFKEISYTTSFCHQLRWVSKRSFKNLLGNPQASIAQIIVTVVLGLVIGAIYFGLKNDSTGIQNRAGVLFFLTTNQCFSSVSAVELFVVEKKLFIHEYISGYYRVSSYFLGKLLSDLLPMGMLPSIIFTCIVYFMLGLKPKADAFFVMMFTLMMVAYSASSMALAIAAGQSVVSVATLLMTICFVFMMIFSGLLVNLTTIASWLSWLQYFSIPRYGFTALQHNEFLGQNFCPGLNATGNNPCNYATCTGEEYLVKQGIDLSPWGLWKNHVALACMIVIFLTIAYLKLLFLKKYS
ABCG2-R, sequence (Q9UNQ0 whole entry): as the sequence (Q9UNQ0 whole entry R482G) above, with G482R counted along it

One may read the IC50 as the concentration at which inhibition is half-maximal. A low value points to higher potency. For the compound `O=C1c2c(O)ccc(O)c2C(=O)c2c(NCCNCCO)ccc(NCCNCCO)c21` [MX, mitoxantrone], the IC50 at 4 days is ~0.01 µg/mL (≈ 0.0225 µM) in series [1], 0.03 µg/mL (≈ 0.0675 µM) in [2] and 0.075 µg/mL (≈ 0.169 µM) in the series with ABCG2-G (R482G ABCG2). Further, in series [3], the “ratio of gp91phox-expressing cells after selection” value was “over 90%”. For the same compound, the “level of CD15+ cells after selection” value in series [4] (ABCG2-G transduced CD34+ cells) is reported as “unchanged level of CD15+ cells”. Further, the “fate of mock-transduced cells in suspension culture” value in [4] (mock-transduced CD34+ cells) is on record as “eliminated”. Moreover, the “decrease of CFC number” value in series [5] (ABCG2-G transduced CD34+ cells) is on record as “about 50%”; in [8] (ABCG2-T transduced BM cells) it was “about 80%”. For the same compound, the results for the colony formation entry in [5] (mock-transduced CD34+ cells), in series [8] (ABCG2-G transduced BM cells) and in series [8] (non-transduced BM cells) were “did not form colonies”, “hardly formed any” and “did not form colonies”, respectively. For the same compound, the survival of cells result in [6] (5 nM or more mitoxantron, non-transduced control BM cells) is reported as “all non-transduced control cells died”. Moreover, the “transduced cells resistant to MX (surviving cells)” value in series [6] (5 or 10 nM mitoxantron, SPsAGS or SPsATS transduced, unselected BM cells) is recorded as 15-20%. The “gp91phox-positive cells after selection” value in series [7] is > 80%.

Regarding `COc1cccc2c1C(=O)c1c(O)c3c(c(O)c1C2=O)C[C@@](O)(C(=O)CO)C[C@@H]3O[C@H]1C[C@H](N)[C@H](O)[C@H](C)O1` [ADR, doxorubicin], the IC50 at 4 days is ~0.008 µg/mL (≈ 0.0147 µM) in series [1], ~0.02 µg/mL (≈ 0.0368 µM) in [2] and ~0.25 µg/mL (≈ 0.46 µM) in the series on ABCG2-G (R482G ABCG2).

`COc1ccc2c3c([nH]c2c1)[C@H](C=C(C)C)N1C(=O)[C@@H]2CCCN2C(=O)[C@@H]1C3` [FTC, Fumitremorgin C]: the “effect on MX uptake” value in [9] is recorded as “no effect”. Moreover, the “sensitivity of MX uptake to the inhibitor” value at ABCG2-G [10] is “fully sensitive”. Moreover, the “reversal of MX extrusion” value at ABCG2-G [11] and at ABCG2-R was “fully reversible” throughout.
